# Data: US8673320B2, “Metal-citrate transporter antigen from Streptomyces coelicolor and uses thereof” (Syracuse University, priority 2008, dated 2014)
# Structures can show the parent of a compound that is named as a salt.
# Key:
# [1] = test system: Sccit; assay: 1,5-[^14C]-citrate transport assay in E. coli expressing Sccit; format: cell-based, Streptomyces coelicolor; details: E. coli AA93 Δfec or JW4251-2 ΔfecA, induced with 0.5 mM IPTG for 1 hour
# Description: E. coli AA93 and JW4251-2 cultures were grown in LB as described above. Protein expression for transport assays was induced at 30.0° C. with 0.5 mM Isopropyl β-D-thiogalacto-pyranoside (IPTG) at an OD600 of 1.0 for 1 hour. Subsequent flux assays followed the protocol described above for S. coelicolor and previous literature protocol (A19) with the following adaptations: cells were resuspended with 10 mL of PIPES buffer at 6.5 for all metals, and the transport assay was conducted at 37.0° C. except for iron (25° C.). Non-induced controls were included in all runs. Concentration of metal ion and citrate were chosen to maximize the formation of the desired metal-citrate complex (see Table 2). Experiments were performed using at least three independent cultures and each time point was collected in triplicate per run. Incubation of the metal ion (except for Fe^3+ as described above) and pre-complexation of the metal with [^14C]-citrate prior to cell addition yielded similar results. Experiments were also conducted, specifically for Fe^3+-citrate uptake, involving reducing the IPTG induction temperature in E. coli down to 4° C. (see FIG. 5). This was to observe actual uptake of the iron complex.
# [2] = test system: Streptomyces coelicolor A3(2); assay: 1,5-[^14C]-citrate transport assay in whole cells, Streptomyces coelicolor A3(2); format: cell-based; details: for uptake of citrate or metal-citrate species above background: S. coelicolor grown with glucose (SMMG), for Fe^3+ SMMG supplemented with 36 μM FeCl3.6H2O; for uptake of citrate in the presence of metal ion: S. coelicolor grown in broth with citrate as sole carbon source (SMMC), PIPES pH 6.5, 4.4 μM citrate
# Description: S. coelicolor A3(2) cells were grown from stocks for 48-72 hours at 28° C. and 300 rpm. Cells were collected via centrifugation and washed twice with 50 mM chelexed piperazine-N,N′-bis(2-ethanesulfonic acid) (PIPES) buffer, pH 6.5. Cells were resuspended to an OD of 0.2 after the second wash. 100 μl of cells were added to 2.2 ml microcentrifuge tubes. 5 μl of metal as the chloride salt was then added from the following stock solution concentrations (220 mM CaCl2 or BaCl2, 22 mM MgCl2, NiCl2, 22 mM CoCl2, PbCl2, MnCl2 and 1.65 mM FeCl3). Different molar amounts of metals were used to maximize metal-citrate complex formation as per MINTEQ calculations (A12) and successfully used in a previous literature report (A19). Cells were then incubated at 30° C. for 8 minutes with shaking. At 8 minutes, 5 μl of 96.8 μM 1,5-[^14C]-citrate was added to each sample to provide a final concentration of 4.4 μM. Uptake was stopped by addition of 2 mL of 0.1 M LiCl. This was followed by immediate filtration through cellulose nitrate filters ([…], 2.1 cm diameter). The filters were washed with 2×2 mL of 0.1 M LiCl solution and radioactivity was recorded using a liquid scintillation counter. In every experimental run, background radioactivity was gauged by adding 2 mls of LiCl prior to addition of the radiolabelled citrate. As before, cells were then immediately filtered, washed with 2×2 mL of 0.1 M LiCl and radioactivity monitored. This served as the background and was subtracted from final data. Experiments were performed using at least three independent cultures and each time point was collected in triplicate per run. 4×100 μl of cells from each run were filtered directly through pre-weighed cellulose nitrate filter paper and dried to determine average cell sample weight. Transport assays were also ‘stopped’ using 10 mM HEPES-glucose buffer instead of 0.1 M LiCl to check for the occurrence of ‘leaking’, which has been postulated to occur with the use of LiCl (A22). No noticeable difference was observed across multiple cultures tested in either S. coelicolor (or E. coli as described below).
# It is important to note that pre-incubating the ‘free’ metal prior to addition of ^14[C]-citrate or synthesizing the complex and then adding it to the cells made no difference to experimental results consistent with the work reported by Lolkema et al. (A19), except in the case of Fe^3+. Transport assays with Fe^3+ were performed at 25.0° C. with the metal precomplexed to [^14C]-citrate to prevent Fe^3+ precipitation in the aqueous buffer. The temperature and pH change were accounted for in MINTEQ calculations. All experiments using precomplexed mixtures were filtered using a 0.45 μm syringe filter (Fisher Scientific) prior to addition to cells.
# [3] = test system: S. coelicolor; assay: Growth of S. coelicolor in CHELEX-washed, metal-free SMMC broth; format: cell-based, Streptomyces coelicolor
# Description: Streptomyces coelicolor A3(2) was obtained from a third party supplier and the American Type culture collection (BAA-471). S. coelicolor A3(2) stocks were grown in Yeast-Extract Malt Extract broth (YEME) at 28° C. in 125 mL baffled flasks to an Optical Density at 600 nm (OD600) of ˜2.0. 20% glycerol was added to the cells in a 1:1 volume ratio and the cells were chilled on ice for 1 hour and placed at −80° C. still in the ice container. After 24 hours the cells were taken out of the ice container and at −80° C. Streptomyces coelicolor was grown in Streptomyces Minimal Medium (SMM) broth for functional characterization studies. SMM was prepared as previously reported (A17) with the following modifications; L-asparagine was replaced with ammonium sulfate (1 g L^−1), agar was eliminated and either [56 mM] sodium citrate (SMMC) or [56 mM] glucose (SMMG) was added as the sole carbon source. 50 ml of SMMC or SMMG broths were inoculated with 1 ml of S. coelicolor A3(2) stock solutions and grown for 48-72 hrs at 28° C. and 300 rpm shaking in 125 mL baffled flasks.
# In addition, growth of S. coelicolor was arrested in CHELEX-washed, metal-free SMMC broth. This arrest could be prevented by addition of Fe^3+ (or Ca^2+) but not Mg^2+ or Ni^2+ to SMMC.
SMILES,"uptake of 1,5-[^14C]-citrate with metal ion cofactor [1]",uptake of citrate or metal-citrate species above background [2],prevention of growth arrest by addition of metal ion [3],uptake of citrate in the presence of metal ion [2],"Fe^3+-citrate uptake, iron absent from growth broth ([2]; S. coelicolor grown in SMM containing glucose, no iron in broth)",EGTA concentration at which citrate uptake decreased to zero ([2]; in the presence of 10 mM Ca^2+)
[Pb+2] [Pb^2+],"uptake of 1,5-[^14C]-citrate observed",No uptake,–,–,–,–
[Fe+3] [Fe^3+],"uptake of 1,5-[^14C]-citrate observed",significant uptake,prevented,uptake was dependent on the presence,–,–
O=C([O-])CC(O)(CC(=O)[O-])C(=O)[O-].[Fe+3] [Fe^3+-citrate],–,–,–,–,greatly reduced,–
O=C(O)CC(O)(CC(=O)O)C(=O)O [free citrate],not transported,No uptake,–,no uptake,–,–
[Ni+2] [Ni^2+],did not result in citrate uptake,No uptake,not,no greater than the rate of uptake without metal ions,–,–
[Ba+2] [Ba^2+],–,No uptake,–,–,–,–
"O=C(O)CN(CCOCCOCCN(CC(=O)O)CC(=O)O)CC(=O)O [EGTA, ethylene glycol tetraacetic acid, reference compound]",–,–,–,–,–,over 1 mM
[Mg+2] [Mg^2+],did not result in citrate uptake,No uptake,not,no greater than the rate of uptake without metal ions,–,–
[Ca+2] [Ca^2+],"uptake of 1,5-[^14C]-citrate observed",No uptake,prevented,–,–,–
[Co+2] [Co^2+],did not result in citrate uptake,No uptake,–,no greater than the rate of uptake without metal ions,–,–
